In ChEMBL document CHEMBL2062485, “Structural characterization and antimicrobial evaluation of atractyloside, atractyligenin, and 15-didehydroatractyligenin methyl ester” (2012):

What was measured:
Assay type in all cases: functional
Staphylococcus aureus [1] = test: Antibacterial activity against floroquinilone-resistant Staphylococcus aureus SA1199B by MTT assay
Staphylococcus aureus [2] = test: Antibacterial activity against Staphylococcus aureus […] by MTT assay
Staphylococcus aureus [3] = test: Antibacterial activity against epidemic methicillin-resistant Staphylococcus aureus isolate 15 by MTT assay
Staphylococcus aureus [4] = test: Antibacterial activity against epidemic methicillin-resistant Staphylococcus aureus isolate 16 by MTT assay

Measured: MIC

C=C1C(=O)[C@@]23CC[C@@H]4[C@H](C(=O)OC)C[C@@H](O)C[C@@]4(C)[C@@H]2CC[C@H]1C3
128 µg/mL: Staphylococcus aureus [1] | Staphylococcus aureus [2] | Staphylococcus aureus [3] | Staphylococcus aureus [4]
